This passage reports remaining activity results from publication PMC10824666 (Nature Cancer, 2023).

Like-named read-outs stand apart in the source and are kept apart here.

In this assay the target is T1, PKD2 (Homo sapiens, UniProt Q9BZL6).
T1 construct: gene PRKD2
T1 sequence (Q9BZL6 1-878): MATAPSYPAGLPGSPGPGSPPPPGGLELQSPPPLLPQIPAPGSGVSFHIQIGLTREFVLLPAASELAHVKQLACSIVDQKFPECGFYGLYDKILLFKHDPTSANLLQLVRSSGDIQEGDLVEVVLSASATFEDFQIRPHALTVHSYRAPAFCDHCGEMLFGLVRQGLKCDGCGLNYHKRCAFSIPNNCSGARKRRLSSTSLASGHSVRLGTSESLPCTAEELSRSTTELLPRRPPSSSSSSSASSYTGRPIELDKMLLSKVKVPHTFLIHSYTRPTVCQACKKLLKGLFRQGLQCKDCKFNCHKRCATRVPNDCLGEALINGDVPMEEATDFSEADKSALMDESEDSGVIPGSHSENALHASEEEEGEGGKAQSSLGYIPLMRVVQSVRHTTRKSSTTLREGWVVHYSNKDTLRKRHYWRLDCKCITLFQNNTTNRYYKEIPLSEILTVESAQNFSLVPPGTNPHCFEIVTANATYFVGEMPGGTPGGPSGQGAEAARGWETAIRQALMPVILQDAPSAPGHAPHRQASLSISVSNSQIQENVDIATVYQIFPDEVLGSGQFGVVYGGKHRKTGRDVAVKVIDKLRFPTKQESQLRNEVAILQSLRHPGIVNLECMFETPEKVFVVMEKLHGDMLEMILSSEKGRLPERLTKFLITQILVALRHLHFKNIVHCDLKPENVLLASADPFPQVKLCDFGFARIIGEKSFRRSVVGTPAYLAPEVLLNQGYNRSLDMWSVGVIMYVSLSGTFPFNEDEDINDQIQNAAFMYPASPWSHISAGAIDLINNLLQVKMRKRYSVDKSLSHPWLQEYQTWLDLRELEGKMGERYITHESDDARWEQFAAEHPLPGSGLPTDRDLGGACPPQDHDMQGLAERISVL
Put plainly: biochemical. Also noted: Eurofins DiscoverX kinase panel, competitive binding assay at 1 uM, percent of DMSO control. The note with it: competitive binding, percent of DMSO control. The gist of the method:
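Competitive binding assay across a 96-kinase panel with KIF18A compounds at 1 µM; values given as percentage of control (POC), single experiment.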

For `CC(C)(CO)Nc1ccc(C(=O)Nc2cccc(S(=O)(=O)C3CCCC3)c2)c(N2CCC3(CC2)CC3)n1` [AM-0277], for the setting “read-out: Kinome Profiling performed by Eurofins DiscoverX / AM-0277, 1.0 µM / POC”, the remaining activity at 1 µM came to 100%.

`CC(C)(C)NS(=O)(=O)c1cccc(NC(=O)c2ccc(S(=O)(=O)NC(C)(C)C)cc2N2CCC3(CC2)CC3)c1` [AM-1882]: where the note is “read-out: Kinome Profiling performed by Eurofins DiscoverX / AM-1882, 1.0 µM / POC”, the remaining activity at 1 µM was found to be 64.5%.

As for `C[C@@H]1CN(c2cccc(NC(=O)c3ccc(NS(=O)(=O)CCO)cc3N3CCC4(CC3)CC4)n2)CCO1` [AM-5308], the remaining activity at 1 µM (read-out: Kinome Profiling performed by Eurofins DiscoverX / AM-5308, 1.0 µM / POC) is 100%.
